# Source: US12509449B2, “Anthelmintic compounds comprising a quinoline structure” (Intervet Inc., priority 2019, dated 2025)
# What was measured:
# [1] = target: T1, human Maxi K channel (BK channel), KCNMA1 (KCa1.1) and beta1 (KCNMB1) subunits (Homo sapiens, UniProt Q12791); experiment: Agonistic activity at the human Maxi K channel (BK channel), membrane potential (FLIPR) in transfected CHO K1 cells; type: cell-based; details: membrane potential dye, 70 mM KCl
# T1 construct: expressed in transfected cells; host or cells: CHO K1
# T1 sequence (Q12791 1-1178 isoform Q12791-5): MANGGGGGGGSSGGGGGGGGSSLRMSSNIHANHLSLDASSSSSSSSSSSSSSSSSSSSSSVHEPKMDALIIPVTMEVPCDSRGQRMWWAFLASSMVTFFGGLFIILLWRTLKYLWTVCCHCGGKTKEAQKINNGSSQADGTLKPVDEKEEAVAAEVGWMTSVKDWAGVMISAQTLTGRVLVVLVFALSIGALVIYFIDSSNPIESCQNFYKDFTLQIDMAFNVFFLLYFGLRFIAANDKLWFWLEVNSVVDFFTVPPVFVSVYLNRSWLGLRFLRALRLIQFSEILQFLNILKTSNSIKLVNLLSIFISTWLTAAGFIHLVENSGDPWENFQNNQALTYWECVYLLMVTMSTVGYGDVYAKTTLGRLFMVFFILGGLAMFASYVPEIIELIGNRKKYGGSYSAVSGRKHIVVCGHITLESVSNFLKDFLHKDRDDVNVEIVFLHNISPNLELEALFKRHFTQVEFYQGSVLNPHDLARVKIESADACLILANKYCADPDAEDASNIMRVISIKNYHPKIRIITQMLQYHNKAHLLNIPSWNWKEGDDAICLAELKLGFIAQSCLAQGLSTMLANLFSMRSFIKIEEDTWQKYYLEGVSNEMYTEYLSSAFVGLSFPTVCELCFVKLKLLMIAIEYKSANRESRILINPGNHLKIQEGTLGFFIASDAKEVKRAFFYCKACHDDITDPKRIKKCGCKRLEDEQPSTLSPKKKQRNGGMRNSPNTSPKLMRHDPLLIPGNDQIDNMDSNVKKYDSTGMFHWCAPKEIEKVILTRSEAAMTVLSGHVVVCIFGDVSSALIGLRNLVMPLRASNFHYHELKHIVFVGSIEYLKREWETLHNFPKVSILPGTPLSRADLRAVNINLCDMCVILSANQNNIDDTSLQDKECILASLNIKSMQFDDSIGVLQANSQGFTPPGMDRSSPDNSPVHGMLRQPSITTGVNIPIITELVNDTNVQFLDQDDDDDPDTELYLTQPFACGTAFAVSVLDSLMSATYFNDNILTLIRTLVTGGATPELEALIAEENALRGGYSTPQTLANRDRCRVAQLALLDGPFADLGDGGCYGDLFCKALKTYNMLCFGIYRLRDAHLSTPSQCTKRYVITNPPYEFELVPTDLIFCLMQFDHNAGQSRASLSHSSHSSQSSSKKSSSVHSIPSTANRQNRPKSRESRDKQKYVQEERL
# T1 sequence (Q16558 whole entry partner): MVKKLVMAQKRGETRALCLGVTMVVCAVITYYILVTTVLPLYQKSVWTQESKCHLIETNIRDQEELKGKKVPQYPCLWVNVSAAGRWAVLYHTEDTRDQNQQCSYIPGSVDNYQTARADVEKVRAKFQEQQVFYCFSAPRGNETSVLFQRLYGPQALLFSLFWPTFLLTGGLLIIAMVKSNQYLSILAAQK
# Description: A CHO K1 cell line was stably transfected with the KCNMA1 (KCa1.1, U11058) and beta1 (KCNMB1) subunits of the human Maxi K channel (Ponte et al, Molecular Pharmacology 2012, 81(4), 567-577).
# The complete measurement takes 150 s.
# [2] = target: Caenorhabditis elegans slo-1a (Caenorhabditis elegans, UniProt Q95V25); experiment: Agonistic activity at C. elegans Slo-1a, membrane potential (FLIPR) in transfected CHO K1 cells; details: EC50 agonistic activity at C. elegans Slo-1a, membrane potential dye, 70 mM KCl
# Chain of Caenorhabditis elegans slo-1a (Q95V25 whole entry): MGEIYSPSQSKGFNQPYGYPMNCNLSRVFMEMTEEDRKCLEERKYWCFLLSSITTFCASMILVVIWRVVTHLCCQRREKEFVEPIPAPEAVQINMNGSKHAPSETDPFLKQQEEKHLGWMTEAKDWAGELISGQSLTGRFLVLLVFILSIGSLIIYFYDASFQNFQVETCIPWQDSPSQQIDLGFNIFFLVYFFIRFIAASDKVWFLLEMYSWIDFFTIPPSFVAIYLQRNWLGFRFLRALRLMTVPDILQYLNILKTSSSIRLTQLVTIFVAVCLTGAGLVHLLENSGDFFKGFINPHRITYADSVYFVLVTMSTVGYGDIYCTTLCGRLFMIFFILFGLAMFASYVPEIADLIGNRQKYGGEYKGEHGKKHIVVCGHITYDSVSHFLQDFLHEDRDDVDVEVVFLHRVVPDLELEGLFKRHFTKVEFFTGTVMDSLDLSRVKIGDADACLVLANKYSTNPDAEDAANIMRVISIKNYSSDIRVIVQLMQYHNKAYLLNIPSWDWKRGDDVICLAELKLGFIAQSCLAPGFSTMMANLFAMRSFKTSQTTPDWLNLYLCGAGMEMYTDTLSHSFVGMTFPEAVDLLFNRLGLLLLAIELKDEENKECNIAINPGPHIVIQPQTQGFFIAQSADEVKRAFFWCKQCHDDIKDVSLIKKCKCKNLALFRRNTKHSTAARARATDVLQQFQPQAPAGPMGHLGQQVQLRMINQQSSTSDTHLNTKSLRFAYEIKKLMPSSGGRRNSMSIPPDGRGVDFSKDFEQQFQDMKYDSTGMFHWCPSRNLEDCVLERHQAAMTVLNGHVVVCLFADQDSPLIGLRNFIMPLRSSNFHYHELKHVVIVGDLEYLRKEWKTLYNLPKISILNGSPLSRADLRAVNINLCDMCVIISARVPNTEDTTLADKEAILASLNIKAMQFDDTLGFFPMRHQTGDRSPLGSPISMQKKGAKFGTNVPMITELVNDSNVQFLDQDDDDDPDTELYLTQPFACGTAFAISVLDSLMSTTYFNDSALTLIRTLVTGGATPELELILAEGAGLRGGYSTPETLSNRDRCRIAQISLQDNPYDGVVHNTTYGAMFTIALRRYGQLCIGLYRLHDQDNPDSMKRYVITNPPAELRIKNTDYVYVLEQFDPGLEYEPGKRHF
# Ascaridia galli L3 = experiment: In vitro assay Ascaridia galli larval stage 3, minimum effective concentration; type: cell-based; details: 20 larvae per well, microscopic examination, read-out: MEC (minimum effective concentration) against Ascaridia galli L3
# Description: […] galli (intestinal roundworm of chicken), larval stage 3 (“L3”); and Oesophagostumum dentatum (nodular worm of swine), larval stages 3 and 4 (respectively “L3” and “L4”) where suspended in a nutrient medium and distributed to 96 well plates with 20 larvae per well. The wells were spiked DMSO solutions of the compounds with declining concentration.
Compound,EC50 [1],EC50 [2],minimal effective concentration (Ascaridia galli L3)
O=C(Cc1ccccc1)Nc1cnc2c(-c3cc(Cl)cc(Cl)c3)cccc2c1N1CCOCC1 [Compound 5],> 30 µM,–,–
O=C(Nc1cnc2c(-c3cccc(Cl)c3Cl)cccc2c1N1CCOCC1)C1CCCc2ccccc21 (centres unmarked) [Compound 19],1 to 10 µM,< 1000 nM,–
O=C(Nc1cnc2c(-c3cccc(Cl)c3Cl)cccc2c1N1CCOCC1)C1CCc2ccccc21 (centres unmarked) [Compound 20],1 to 10 µM,< 1000 nM,–
CC(C(=O)Nc1cnc2c(-c3cccc(Cl)c3Cl)cccc2c1N(C)C)c1cccc(N(C)C)c1 (centres unmarked) [Compound 50],> 30 µM,–,≤ 50 µM
O=C(Nc1cnc2c(-c3cccc(Cl)c3Cl)cccc2c1N1CCOCC1)[C@H]1CCCc2ccccc21 [Compound 53],1 to 10 µM,–,–
COc1c(NC(=O)c2cccc3ccccc23)cnc2c(-c3cccc(Cl)c3Cl)cccc12 [Compound 62],> 30 µM,< 1000 nM,–
O=C(Nc1cnc2c(-c3cc(Cl)cc(Cl)c3)cccc2c1N1CCOCC1)c1cccc2ccccc12 [Compound 74],10 to 30 µM,< 1000 nM,–
COCCN(C)c1c(NC(=O)C2CCOc3ccccc32)cnc2c(-c3cccc(Cl)c3Cl)cccc12 (centres unmarked) [Compound 93],> 30 µM,–,–
CCc1c(NC(=O)c2ccnc3ccccc23)cnc2c(-c3cccc(Cl)c3Cl)cccc12 [Compound 104],> 30 µM,–,≤ 50 µM
CCc1c(NC(=O)C2CCOc3ccccc32)cnc2c(-c3cccc(Cl)c3Cl)cccc12 (centres unmarked) [Compound 105],> 30 µM,< 1000 nM,–
Cc1c(NC(=O)c2ccnc3ccccc23)cnc2c(-c3cccc(Cl)c3Cl)cccc12 [Compound 106],> 30 µM,–,–
O=C(Nc1cnc2c(-c3cccc(Cl)c3Cl)c(F)ccc2c1N1CCOCC1)C1CCCc2ccccc21 (centres unmarked) [Compound 121],1 to 10 µM,< 1000 nM,–
O=C(Nc1cnc2c(-c3cc(Cl)cc(Cl)c3)c(F)ccc2c1N1CCOCC1)C1CCOc2ccccc21 (centres unmarked) [Compound 126],> 30 µM,< 1000 nM,–
CN(C)c1c(NC(=O)C2CCc3ccccc32)cnc2c(-c3cccc(Cl)c3Cl)c(F)ccc12 (centres unmarked) [Compound 140],10 to 30 µM,< 1000 nM,–
O=C(Nc1cnc2c(-c3cccc(Cl)c3Cl)c(F)ccc2c1N1CCOCC1)C1CCc2ccccc21 (centres unmarked) [Compound 141],1 to 10 µM,< 1000 nM,–
CCOc1c(NC(=O)c2cccc3ccccc23)cnc2c(-c3cc(Cl)cc(Cl)c3)c(F)ccc12 [Compound 144],> 30 µM,< 10000 nM,–
O=C(Nc1cnc2c(-c3cc(Cl)cc(Cl)c3)c(F)ccc2c1N1CCOCC1)c1cccc2ccccc12 [Compound 146],10 to 30 µM,< 1000 nM,–
CCOc1c(NC(=O)c2cccc3ccccc23)cnc2c(-c3cccc(Cl)c3Cl)c(F)ccc12 [Compound 149],> 30 µM,< 1000 nM,–
CN(C)c1c(NC(=O)c2cccc3ccccc23)cnc2c(-c3cccc(Cl)c3Cl)c(F)ccc12 [Compound 150],10 to 30 µM,< 1000 nM,–
O=C(Nc1cnc2c(-c3cc(Cl)cc(Cl)c3)c(Cl)ccc2c1N1CCOCC1)C1CCOc2ccccc21 (centres unmarked) [Compound 170],> 30 µM,< 1000 nM,–
Cc1ccc2c(N3CCOCC3)c(NC(=O)C3CCOc4ccccc43)cnc2c1-c1cc(Cl)cc(Cl)c1 (centres unmarked) [Compound 174],> 30 µM,< 1000 nM,–
CCCc1c(NC(=O)c2cccc3ccccc23)cnc2c(-c3cccc(Cl)c3Cl)cccc12 [Compound 187],> 30 µM,< 1000 nM,–
C=C(C)c1c(NC(=O)c2cccc3ccccc23)cnc2c(-c3cccc(Cl)c3Cl)cccc12 [Compound 189],> 30 µM,–,–
Cc1c(NC(=O)c2cccc3ccccc23)cnc2c(-c3cccc(Cl)c3Cl)cccc12 [Compound 190],> 30 µM,< 10000 nM,–
C=C(C)c1c(NC(=O)c2cccc3ccccc23)cnc2c(-c3cc(Cl)cc(Cl)c3)cccc12 [Compound 200],> 30 µM,–,≤ 50 µM

# The next lines start with results.
EC50 [1],EC50 [2],Compound,minimal effective concentration (Ascaridia galli L3)
> 30 µM,< 10000 nM,O=C(Nc1cnc2c(-c3cc(Cl)cc(Cl)c3)cccc2c1N1CCOCC1)C1CCOc2ccccc21 (centres unmarked) [Compound 7],–
> 30 µM,< 1000 nM,CC(C(=O)Nc1cnc2c(-c3cc(Cl)cc(Cl)c3)cccc2c1N1CCOCC1)c1ccccc1 (centres unmarked) [Compound 9],–
1 to 10 µM,< 1000 nM,CN(C)c1c(NC(=O)C2CCCc3ccccc32)cnc2c(-c3cccc(Cl)c3Cl)cccc12 (centres unmarked) [Compound 13],–
> 30 µM,< 1000 nM,CCOc1c(NC(=O)[C@H]2CCCc3ccccc32)cnc2c(-c3cccc(Cl)c3Cl)cccc12 [Compound 54],–
> 30 µM,< 1000 nM,CCOc1c(NC(=O)C2CCCc3ccccc32)cnc2c(-c3cccc(Cl)c3Cl)cccc12 (centres unmarked) [Compound 55],–
> 30 µM,–,CC(C)Oc1c(NC(=O)C2CCCc3ccccc32)cnc2c(-c3cccc(Cl)c3Cl)cccc12 (centres unmarked) [Compound 59],–
> 30 µM,–,O=C(Nc1cnc2c(-c3cc(Cl)cc(Cl)c3)cccc2c1O)C1CCOc2ccccc21 (centres unmarked) [Compound 64],–
> 30 µM,< 10000 nM,O=C(Nc1cnc2c(-c3cc(Cl)cc(Cl)c3)cccc2c1O)C1CCc2ccccc21 (centres unmarked) [Compound 65],–
> 30 µM,–,O=C(Nc1cnc2c(-c3cc(Cl)cc(Cl)c3)cccc2c1O)c1cccc2ccccc12 [Compound 66],≤ 50 µM
> 30 µM,< 1000 nM,CN(C)c1c(NC(=O)C2CCCc3ccccc32)cnc2c(-c3cc(Cl)cc(Cl)c3)cccc12 (centres unmarked) [Compound 68],–
> 30 µM,–,"CC(C)Oc1c(NC(=O)C2CCCc3ccccc32)cnc2c(-c3cc(Cl)cc(Cl)c3)cccc12 (centres unmarked) [Compound 76, N-(8-(3,5-dichlorophenyl)-4-isopropoxyquinolin-3-yl)-1,2,3,4-tetrahydro-naphthalene-1-carboxamide]",≤ 50 µM
> 30 µM,–,CC(C)Oc1c(NC(=O)C2CCOc3ccccc32)cnc2c(-c3cc(Cl)cc(Cl)c3)cccc12 (centres unmarked) [Compound 78],–
> 30 µM,–,CC(C)Oc1c(NC(=O)C2CCc3ccccc32)cnc2c(-c3cc(Cl)cc(Cl)c3)cccc12 (centres unmarked) [Compound 80],–
10 to 30 µM,< 1000 nM,O=C(Nc1cnc2c(-c3cc(Cl)cc(Cl)c3)cccc2c1N1CCOCC1)C1CCc2ccccc21 (centres unmarked) [Compound 82],–
> 30 µM,–,CC(C)N(C)c1c(NC(=O)C2CCOc3ccccc32)cnc2c(-c3cccc(Cl)c3Cl)cccc12 (centres unmarked) [Compound 89],≤ 50 µM
10 to 30 µM,–,CCNc1c(NC(=O)C2CCCc3ccccc32)cnc2c(-c3cccc(Cl)c3Cl)cccc12 (centres unmarked) [Compound 96],≤ 50 µM
> 30 µM,–,CC(C)Nc1c(NC(=O)C2CCCc3ccccc32)cnc2c(-c3cccc(Cl)c3Cl)cccc12 (centres unmarked) [Compound 97],–

EC50 [1],EC50 [2],Compound,minimal effective concentration (Ascaridia galli L3)
10 to 30 µM,–,COCCNc1c(NC(=O)C2CCCc3ccccc32)cnc2c(-c3cccc(Cl)c3Cl)cccc12 (centres unmarked) [Compound 101],–
> 30 µM,< 1000 nM,COCCN(C)c1c(NC(=O)C2CCCc3ccccc32)cnc2c(-c3cccc(Cl)c3Cl)cccc12 (centres unmarked) [Compound 103],–
> 30 µM,< 1000 nM,CC(C)c1c(NC(=O)C2CCCc3ccccc32)cnc2c(-c3cccc(Cl)c3Cl)cccc12 (centres unmarked) [Compound 109],–
> 30 µM,–,O=C(Nc1cnc2c(-c3cccc(Cl)c3Cl)cccc2c1O)C1CCc2ccccc21 (centres unmarked) [Compound 111],–
> 30 µM,–,CC(C)Oc1c(NC(=O)C2CCCc3ccccc32)cnc2c(-c3cc(Cl)cc(Cl)c3)c(F)ccc12 (centres unmarked) [Compound 117],–
> 30 µM,< 1000 nM,CCOc1c(NC(=O)C2CCCc3ccccc32)cnc2c(-c3cccc(Cl)c3Cl)c(F)ccc12 (centres unmarked) [Compound 119],–
> 30 µM,–,CCOc1c(NC(=O)C2CCc3ccccc32)cnc2c(-c3cc(Cl)cc(Cl)c3)c(F)ccc12 (centres unmarked) [Compound 134],–
> 30 µM,< 1000 nM,CN(C)c1c(NC(=O)C2CCc3ccccc32)cnc2c(-c3cc(Cl)cc(Cl)c3)c(F)ccc12 (centres unmarked) [Compound 135],–
> 30 µM,< 1000 nM,CCOc1c(NC(=O)C2CCc3ccccc32)cnc2c(-c3cccc(Cl)c3Cl)c(F)ccc12 (centres unmarked) [Compound 139],–
> 30 µM,< 10000 nM,CN(C)c1c(NC(=O)c2cccc3ccccc23)cnc2c(-c3cc(Cl)cc(Cl)c3)cccc12 [Compound 153],–
> 30 µM,< 1000 nM,CN(C)c1c(NC(=O)C2CCOc3ccccc32)cnc2c(-c3cc(Cl)cc(Cl)c3)c(Cl)ccc12 (centres unmarked) [Compound 171],–
> 30 µM,< 1000 nM,COc1c(NC(=O)[C@H]2CCCc3ccccc32)cnc2c(-c3cccc(Cl)c3Cl)c(C)ccc12 [Compound 183],–
10 to 30 µM,< 1000 nM,Cc1ccc2c(N(C)C)c(NC(=O)[C@H]3CCCc4ccccc43)cnc2c1-c1cccc(Cl)c1Cl [Compound 184],–
10 to 30 µM,< 1000 nM,O=C(Nc1cnc2c(-c3cc(Cl)cc(Cl)c3)c(Cl)ccc2c1N1CCOCC1)[C@H]1CCCc2ccccc21 [Compound 185],–
> 30 µM,< 1000 nM,CN(C)c1c(NC(=O)[C@H]2CCCc3ccccc32)cnc2c(-c3cc(Cl)cc(Cl)c3)c(Cl)ccc12 [Compound 186],–
> 30 µM,–,Cc1c(NC(=O)c2cccc3ccccc23)cnc2c(-c3cc(Cl)cc(Cl)c3)cccc12 [Compound 198],≤ 50 µM
> 30 µM,< 1000 nM,CCc1c(NC(=O)[C@H]2CCCc3ccccc32)cnc2c(-c3cccc(Cl)c3Cl)cccc12 [Compound 204],–
